pIC50: −log10 of the molar value. Read-outs that look alike come from different tables or passages of the source.
How the values were obtained:
[1] = system: platelets (aggregation induced by collagen or arachidonic acid); assay: Effect of inhibiting aggultination of platelets (ex vivo), oral administration to guinea pigs; assay type: in vivo; conditions: Cavia porcellus, Platelet, 2 h
Description: 2. Effect of inhibiting aggultination of platelets (ex vivo)
The compound A to E, which were typical examples of the compound of the present invention, were orally administered to guinea pigs. After two hours, the blood of each animal was collected from the abdominal aorta thereof under etherization. Then the effect of each compound on the aggultination of platelets induced by collagen (3 μg/ml) and arachidonic acid (50 μM) was examined. […] In other words, this test is conducted to examine the effect of platelet aggregation (ex vivo).
(§1) The tests were conducted in the same way as shown before from the diphenylethylene derivative. Results for inhibition of aggulutination are shown in Table 3 for the in-vitro test and in Table for the ex-vivo test. The acute toxicity test provided the same results as obtained with the diphenylethylene derivative.

[2] = system: platelets (aggregation induced with collagen, arachidonic acid, ADP or PAF); assay: Effect in inhibiting aggulutination of platelets (in vitro), human platelet-rich plasma; assay type: cell-based
Description: 1. Effect in inhibiting aggulutination of platelets […]
The blood was collected from a human cubital vein in such a manner as to contain a 3.8% solution of sodium citrate in an amount 1.10 time by volume as much as the blood. Then platelet-rich plasma (PRP) was prepared therefrom according to the method reported by Packham et al. (ct. Packham, M. A., et al, J. Exp. Med., 126, 171-189 (1967)). To 0.2 ml of the obtained PRP, 25 μl portions of solutions of each compound of the present invention (A to E) at various concentrations were added and incubated at 37° C. for three minutes. Then the aggultination of platelets was induced with arachidonic acid, collagen, ADP and PAF. The aggulutination of platelets was evaluated according to the method reported by Mustard et al. (cf. Mustard, J. F., et al., J. Lab. Clin. Med., 64, 548-559 […] with the use of an aggregometer available from Schenko or Niko Bioscience Co. In other words, this test is carried out to examine the effect of platelet aggregation (in vitro).
as §1

[3] = guinea pigs, oral, two hours after administration, arachidonic acid (50 μM), ex vivo, read-out: Effect of inhibiting arachidonic acid aggultination ED50
[4] = guinea pigs, oral, two hours after administration, collagen (3 μg/ml), ex vivo, read-out: Effect of inhibiting collagen aggultination ED50
[5] = ADP-induced, human PRP, incubated at 37° C. for three minutes, in vitro, read-out: Effect of inhibiting ADP aggultination IC50
[6] = PAF-induced, human PRP, incubated at 37° C. for three minutes, in vitro, read-out: Effect of inhibiting PAF aggultination IC50
[7] = arachidonic acid-induced, human PRP, incubated at 37° C. for three minutes, in vitro, read-out: Effect of inhibiting arachidonic acid aggultination IC50
[8] = collagen-induced, human PRP, incubated at 37° C. for three minutes, in vitro, read-out: Effect of inhibiting collagen aggultination IC50

SMILES | ED50 [1, 3] [mg/kg] | ED50 [1, 4] [mg/kg] | pIC50 [2, 5] | pIC50 [2, 6] | pIC50 [2, 7] | pIC50 [2, 8] | ED50 ([1]; po, read-out: Effect of inhibiting arachidonic acid aggultination ED50) [mg/kg] | ED50 ([1]; po, read-out: Effect of inhibiting collagen aggultination ED50) [mg/kg] | pIC50 ([2]; Homo sapiens, read-out: Effect of inhibiting ADP aggultination IC50) | pIC50 ([2]; Homo sapiens, read-out: Effect of inhibiting PAF aggultination IC50) | pIC50 ([2]; Homo sapiens, read-out: Effect of inhibiting arachidonic acid aggultination IC50) | pIC50 ([2]; Homo sapiens, read-out: Effect of inhibiting collagen aggultination IC50)
COc1ccc(C(=CC(=O)NCc2ccccc2)c2ccc(OC)cc2)cc1 [Cpd. A, N-Benzyl-3,3-bis(4-methoxyphenyl)acrylamide] | 100 | 100 | 5.30 | 4.82 | 5.30 | 4.70 | – | – | – | – | – | –
COc1ccc(C(=CCNS(=O)(=O)c2ccccc2)c2ccc(OC)cc2)cc1 [Cpd. B, N-[3,3-Bis(4-methoxyphenyl)allyl]benzensulfonamide] | 20 | 20 | 5.70 | 5.60 | 6.05 | 5.85 | – | – | – | – | – | –
CCOC(=O)CCC(C#N)=C(c1ccc(OC)cc1)c1ccc(OC)cc1 [Cpd. C, Ethyl 4-cyano-5,5-bis(4-methoxyphenyl)-4-pentenoate] | 0.03 | 0.05 | 6.70 | 5.74 | 7.15 | 6.70 | – | – | – | – | – | –
COc1ccc(C(=C(C#N)CCC(=O)O)c2ccc(OC)cc2)cc1 [Cpd. D, 4-Cyano-5,5-bis(4-methoxyphenyl)4-pentenoic acid] | – | – | – | – | – | – | 0.03 | 0.05 | 5.72 | 5.55 | 6.10 | 5.77
COC(=O)CCCC(C#N)=C(c1ccc(OC)cc1)c1ccc(OC)cc1 [Cpd. E, Methyl 5-cyano-6,6-bis(4-methoxyphenyl)-5-hexenoate] | 0.3 | 1 | 6.70 | 5.89 | 7.22 | 6.82 | – | – | – | – | – | –
CCOC(=O)CC(=O)CON=C(c1ccc(OC)cc1)c1ccc(OC)cc1 [Cpd. L, 4,4'-dimethoxybenzophenone-O-(3-ethoxycarbonyl-2-oxopropyl)oxime] | 30 | 30 | 6.10 | 5.92 | 7.00 | 6.30 | – | – | – | – | – | –
CCOC(=O)CC(CON=C(c1ccc(OC)cc1)c1ccc(OC)cc1)=NOC [Cpd. M, 4,4'-Dimethoxybenzophenone O-(3-ethoxycarbonyl-2-methoxyiminopropyl)oxime] | 55 | 55 | 4.88 | 4.70 | 4.90 | 4.85 | – | – | – | – | – | –
CON=C(CON=C(c1ccc(OC)cc1)c1ccc(OC)cc1)CC(=O)O [Cpd. N, 4,4'-Dimethoxybenzophenone O-(3-carboxy-2-methoxyiminopropyl)oxime] | 0.3 | 1.3 | 5.30 | 5.39 | 6.15 | 5.55 | – | – | – | – | – | –
CCOC(=O)CCC(C#N)ON=C(c1ccc(OC)cc1)c1ccc(OC)cc1 (centres unmarked) [Cpd. O, 4,4'Dimethoxybenzophenone O-(1-cyano-3-ethoxycarbonylpropyl)oxime] | 0.3 | 1 | 4.70 | 4.84 | 5.15 | 4.85 | – | – | – | – | – | –
COc1ccc(C(=NOC(C#N)CCC(=O)O)c2ccc(OC)cc2)cc1 (centres unmarked) [Cpd. P, 4,4'-Dimethoxybenzophenone O-(1-cyano-3-carboxypropyl)oxime] | 0.3 | 1.1 | 5.57 | 5.82 | 6.40 | 5.96 | – | – | – | – | – | –
COC(=O)CCCC(C#N)ON=C(c1ccc(OC)cc1)c1ccc(OC)cc1 (centres unmarked) [Cpd. Q, 4,4'-Dimethoxybenzophenone O-(1-cyano-4-methoxycarbonylbutyl)oxime] | 50 | 88 | 4.46 | 4.43 | 4.92 | 4.44 | – | – | – | – | – | –
COc1ccc(C(=NOC(C#N)CCCC(=O)O)c2ccc(OC)cc2)cc1 (centres unmarked) [Cpd. R, 4,4'-Dimethoxybenzophenone O-(1-cyano-4-carboxybutyl)oxime] | ≤ 100 | ≤ 100 | 4.07 | 4.10 | 4.30 | 4.10 | – | – | – | – | – | –
Clc1ccccc1CN1CCc2sccc2C1 [Ticlopidine, reference compound] | 150 | ≤ 200 | – | – | – | – | – | – | – | – | – | –
